Experiments:
Rhizoctonia solani = test: Protection of corn against infestation with Rhizoctonia solani (seed treatment, infested small-parcel fields); type: in vivo; settings: corn seed treated with triticonazole 5 gai/100 kg alone; seedlings surviving (from 50) after sowing and emergence; untreated control 46
Protocol: An isolate of Rhizoctonia solani originally isolated from maize was grown on potatoe dextrose agar (PDA) at 20° C. in the dark for 14 days. A vermiculite/maize meal/distilled water mixture (2.7:1:1) was autoclaved at 121° C. for 30 minutes in poly-ethylene “autoclave” bags. Once cool, the mixture was inoculated with 40×5 mm^2 agar disks cut from the Rhizoctonia solani cultures and mixed well. The inoculum bags were sealed and then incubated for 14 days at 22° C. with 16 hours light and 8 hours dark periods. Successful growth was checked by extracting granules of vermiculate and plating on PDA. Infested soil was prepared by mixing peat: sharp washed sand (3:1), removing any large peat clumps, adding maize meal mixture (9:1) and combining the two wells.
(§1) Corn seed was either treated with a slurry comprising triticonazole and/or prochloraz in water so that the amounts indicated below were applied per 100 kg of seed, or left untreated (control). Small-parcel fields (1×2 m) were infested with Rhizoctonia solani as described above. After sowing and emergence the number of seedlings surviving (from 50) was determined.

Pythium ultimum = test: Protection of corn against infestation with Pythium ultimum (seed treatment, infested small-parcel fields); type: in vivo; settings: corn seed treated with triticonazole 5 gai/100 kg alone; based on a weighted 0-5 infection scale; untreated control 70
Protocol: An isolate of Pythium ultimum originally isolated from maize was grown on potatoe dex-trose agar (PDA) at 22° C. in the dark for 14 days. A vermiculate/maize meal/distilled water mixture (2.7:1:1) was autoclaved at 121° C. for 30 minutes in polyethylene “auto-clave” bags. Once cool, the mixture was inoculated with 40×5 mm^2 agar disks cut from the Pyhtium ultimum cultures and mixed well. The inoculum bags were sealed and then incubated for 14 days at 21° C. for 14 days in the dark. Successful growth was checked by extracting granules of vermiculate and plating on PDA. Infested soil was prepared by mixing peat: sharp washed sand (3:1) removing any large peat clumps, adding maize meal mixture (40:60 v/v) and combining the two well.
as §1, with “Pythium ultimum” for “Rhizoctonia solani”, “the” for “the number of”, “the disease index (based on a weighted 0-5 infection scale)” for “surviving (from 50)”

Question: Which results are given for `CC1(C)CC/C(=C\c2ccc(Cl)cc2)C1(O)Cn1cncn1` (centres unmarked) [Triticonazole, (E)-5-(4-chlorbenzyliden)-2,2-dimethyl-1-(1H-1,2,4-triazol-1-ylmethyl)cyclopentanol]?
Answer: Percentage of plants surviving (Rhizoctonia solani): 36%; Disease index (Pythium ultimum): 71%
